Assay results: patent publication US20250170157A1, “METHODS AND COMPOSITIONS FOR THE TREATMENT OF HEPATIC ENCEPHALOPATHY” (LEXICON PHARMACEUTICALS, INC., priority 2023, published 2025)

Columns and labels:
[1] = Phase 1 multiple ascending dose clinical study: pharmacokinetics; assay type: in vivo, human
Method: (§1) A phase 1 multiple ascending dose (MAD) clinical study of LX2761 in otherwise healthy subjects with type 2 diabetes (T2DM) was conducted, following an earlier, single ascending dose study of the compound's safety and tolerability.
(§2) This study evaluated the safety and tolerability of orally administered LX2761 given qd (i.e., once daily) or bid (i.e., twice daily) for eight days, over a range of ascending multiple dose levels in subjects with T2DM. As secondary objectives, the study evaluated the PD and PK of LX2761. Of the 51 subjects enrolled in the study, 27 (52.9%) were male and 24 (47.1%) were female. Subject ages ranged from 41 to 65 years, with BMIs ranging from 20.1 to 39.8 kg/m^2.
(§3) Subjects taking LX2761 were grouped into five cohorts: Cohort A=LX2761 dosed 0.4 mg qd for 4 days followed by LX2761 dosed 0.6 mg qd for 4 days; Cohort A2=LX2761 dosed 0.2 mg bid for 8 days; Cohort B=LX2761 dosed 0.6 mg qd for 4 days followed by LX2761 dosed 0.8 mg qd for 4 days; Cohort C=LX2761 dosed 0.6 mg qd for 4 days followed by LX2761 dosed 1.0 mg qd for 4 days; Cohort C1=LX2761 dosed 0.4 mg bid for 8 days.

[2] = test system: subjects with type 2 diabetes (T2DM); assay: Phase 1 multiple ascending dose clinical study: bowel movement frequency and Bristol Stool Form (BSF) Scale; assay type: in vivo, human
Method: FIG. 2 provides a table with baseline Bristol Stool Form (BSF) Scale data for subjects taking placebo or LX2761 in a multiple ascending dose study.
as §1, §2, §3
(§4) Reporting of TEAEs of diarrhea was not based on subject self-reporting. Given the mechanism of action of LX2761, osmotic diarrhea was expected to occur in all subjects receiving LX2761 based on either stool form or daily frequency. […] The study stopping rules defined gradation of diarrhea as follows: diarrhea of moderate intensity was defined as an increase of 4 to 5 stools/day over the normal pre-study count with moderate cramping that limits usual daily activity or may require simple therapeutic intervention; diarrhea of severe intensity was defined as an increase of 6 to 8 stools/day over the normal pre-study count with severe cramping or incontinence that prohibits usual daily activities or requires systemic drug therapy or other therapeutic intervention.

[3] = test system: subjects with type 2 diabetes (T2DM); assay: Phase 1 multiple ascending dose clinical study: safety and tolerability; assay type: in vivo, human
Method: as §1, §2, §3, §4

[4] = rodents and humans; cited from earlier work
SGLT1 transporter = biological target: T1, SGLT1 transporter (Homo sapiens, UniProt P13866); assay: Phase 1 multiple ascending dose clinical study: pharmacodynamics; assay type: in vivo
T1 construct: from tissue; host or cells: intestine of human subjects with T2DM (in vivo clinical study)
T1 sequence (P13866 1-664): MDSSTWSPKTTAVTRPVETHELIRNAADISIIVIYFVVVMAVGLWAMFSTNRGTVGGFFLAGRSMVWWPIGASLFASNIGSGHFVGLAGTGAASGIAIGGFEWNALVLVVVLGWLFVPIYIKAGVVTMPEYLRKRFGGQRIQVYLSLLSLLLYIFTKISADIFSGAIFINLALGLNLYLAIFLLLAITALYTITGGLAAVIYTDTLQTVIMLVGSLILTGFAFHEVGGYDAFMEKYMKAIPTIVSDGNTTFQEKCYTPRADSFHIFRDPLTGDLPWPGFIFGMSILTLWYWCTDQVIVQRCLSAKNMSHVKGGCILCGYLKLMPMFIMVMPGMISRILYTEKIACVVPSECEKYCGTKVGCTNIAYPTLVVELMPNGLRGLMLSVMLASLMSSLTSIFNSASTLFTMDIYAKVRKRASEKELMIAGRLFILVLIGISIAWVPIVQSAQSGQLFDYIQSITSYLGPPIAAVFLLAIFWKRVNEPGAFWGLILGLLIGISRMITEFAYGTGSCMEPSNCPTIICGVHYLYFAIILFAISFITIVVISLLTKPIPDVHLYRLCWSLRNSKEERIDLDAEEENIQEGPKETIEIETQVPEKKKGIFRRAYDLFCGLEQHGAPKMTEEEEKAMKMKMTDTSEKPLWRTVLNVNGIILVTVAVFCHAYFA
Method: A phase 1 multiple ascending dose (MAD) clinical study of LX2761 in otherwise healthy subjects with type 2 diabetes (T2DM) was conducted, following an earlier, single ascending dose study of the compound's safety and tolerability. This study evaluated the safety and tolerability of orally administered LX2761 given qd (i.e., once daily) or bid (i.e., twice daily) for eight days, over a range of ascending multiple dose levels in subjects with T2DM. As secondary objectives, the study evaluated the PD and PK of LX2761. […] Subjects taking LX2761 were grouped into five cohorts: Cohort A=LX2761 dosed 0.4 mg qd for 4 days followed by LX2761 dosed 0.6 mg qd for 4 days; Cohort A2=LX2761 dosed 0.2 mg bid for 8 days; Cohort B=LX2761 dosed 0.6 mg qd for 4 days followed by LX2761 dosed 0.8 mg qd for 4 days; Cohort C=LX2761 dosed 0.6 mg qd for 4 days followed by LX2761 dosed 1.0 mg qd for 4 days; Cohort C1=LX2761 dosed 0.4 mg bid for 8 days.

[5] = test system: mice with STZ-induced diabetes; assay: Effect of LX2761 on glycemic control and cecal pH in mice with STZ-induced diabetes; assay type: in vivo; settings: adult male mice with well-established diabetes, single daily doses 1.5 or 3 mg/kg by oral gavage
Method: FIGS. 1A-1F present data showing the effect of LX2761 on glycemic control in mice with STZ-induced diabetes. […] Glucose excursions among groups were compared as glucose AUC0-120 minutes values. […] On day 49, the final study day, samples were obtained to measure FIG. 1C fasting blood glucose; FIG. 1D plasma tGLP-1; and FIG. 1E cecal glucose, reported as the total amount of glucose recovered.
This study evaluated the effect of orally administered LX2761 on glycemic control in preclinical models.
Mice and Rats. All studies were performed at Lexicon Pharmaceuticals, Inc., in strict accordance with the recommendations in the Guide for the Care and Use of Laboratory Animals of the National institutes of Health. The protocols for all studies were approved by the Lexicon Institutional Animal Care and Use Committee (OLAW Assurance Number A4152-01; AAALAC International Accreditation Number 001025). General methods for mouse and rat care have been described elsewhere. […] For all in vivo studies, mice and rats were fed HGD because glucose must be a major source of dietary calories if the effects of SGLT1 inhibition on glucose homeostasis are to be evaluated. […]
Glucose-Containing Meal Challenge. […] Vehicle or LX2761 was administered by oral gavage at 8:00 AM once daily for 4 consecutive days; body weight and food consumption were measured daily. […]

[6] = T2DM subjects, oral qd or bid for eight days

Compound: CS[C@H]1O[C@@H](c2ccc(C)c(Cc3ccc(CCCC(=O)NC(C)(C)C(=O)NCCN(C)C)cc3)c2)[C@H](O)[C@@H](O)[C@@H]1O [LX2761, N-(1-((2-(dimethylamino)ethyl)-amino)-2-methyl-1-oxopropan-2-yl)-4-(4-(2-methyl-5-((2S,3R,4R,5S,6R)-3,4,5-trihydroxy-6-(methylthio)tetrahydro-2H-pyran-2-yl)benzyl)phenyl)butanamide]
- concentrations after the first dose (exposure) ([1]; after the first dose): mostly BLQ
- increase in exposure (AUC and Cmax) ([1]; ascending dose levels, moderate to high variability): generally dose-related
- absorption ([1]; oral solution): rapid absorption
- subjects with BMs graded as BSF Scale Type 6 or 7 ([2]; all LX2761 cohorts but Cohort B, on at least one day through Day 8): ≥ 50%
- increase in mean stool frequency per day from Baseline ([2]; all LX2761 cohorts, on at least one day through Day 8): > 0.5 BM
- frequency of subjects with 2 or 3 BMs graded as BSF Scale Type 6 or 7 on a single day, versus placebo-treated subjects ([2]; all LX2761 cohorts, through Day 8): higher
- change in BMs meeting study criteria of moderate or severe diarrhea ([2]; human, in vivo): No change in BMs meeting these criteria of moderate or severe diarrhea was reported
- changes in clinical laboratory evaluations, vital signs, physical examination findings, or ECG parameters [3, 6]: No clinically significant changes
- intensity of reported TEAEs ([3]; all reported TEAEs): mild or moderate
- severe cramping or other adverse effects associated with existing HE agents such as lactulose ([3]; human clinical trial, low doses): generally not attended by severe cramping or other adverse effects
- severe TEAEs, SAEs, deaths, or discontinuations due to TEAEs ([3]; human, in vivo): No severe TEAEs, SAEs (serious adverse events), deaths, or discontinuations due to TEAEs occurred
- most frequently reported TEAEs ([3]; mainly nausea, vomiting, and abdominal pain): gastrointestinal (GI) events
- number of TEAEs assessed as moderate in intensity ([3]; of 25 TEAEs, reported by 6 subjects treated with LX2761): 9 TEAEs
- systemic exposure [4]: very low systemic exposure
- peptide YY (PYY) after dosing (SGLT1 transporter; [6]): increases
- total glucagon-like peptide 1 (GLP-1) after dosing (SGLT1 transporter; [6]): increases
- least squares (LS) mean UGE0-24 versus Baseline (SGLT1 transporter; all LX2761 cohorts, at some time points): decreased from Baseline
- difference from placebo in change from Baseline in postprandial glucose (PPG) concentration AUC0-3 (SGLT1 transporter; any LX2761 cohort): No statistically significant differences from placebo
- difference from placebo in change from Baseline in urinary glucose excretion from 0 to 24 hours (UGE0-24) (SGLT1 transporter; any LX2761 cohort): No statistically significant differences from placebo
- PPG concentration AUC0-3 versus Baseline (SGLT1 transporter; each LX2761 cohort except Cohort A2, at most assessment time points): reduced from Baseline
- glycemic control ([5]; FIG. 1): improved glycemic control
- cecal pH ([5]; FIG. 1F): reduced cecal pH
